One assay deals with PRMT5-MEP50 (Homo sapiens, UniProt O14744). The assay can be described thus: PRMT5 assay (3H-SAM flashplate). To be noted: Table 4; PRMT5 biochemical assay. In outline: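 Radiometric methyl-transfer read-out: 3H-methyl transferred to a 3′-biotinylated, acetylated H4 peptide substrate (100 nM) from 3H-SAM (250 nM), captured on streptavidin scintillation plates. Enzyme complex 2.5 nM, pH 8.0 Tris buffer with DTT and Tween, compound preincubation 5 min, 60 min reaction stopped with excess unlabeled SAM.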
PRMT5-MEP50, sequence (O14744 whole entry): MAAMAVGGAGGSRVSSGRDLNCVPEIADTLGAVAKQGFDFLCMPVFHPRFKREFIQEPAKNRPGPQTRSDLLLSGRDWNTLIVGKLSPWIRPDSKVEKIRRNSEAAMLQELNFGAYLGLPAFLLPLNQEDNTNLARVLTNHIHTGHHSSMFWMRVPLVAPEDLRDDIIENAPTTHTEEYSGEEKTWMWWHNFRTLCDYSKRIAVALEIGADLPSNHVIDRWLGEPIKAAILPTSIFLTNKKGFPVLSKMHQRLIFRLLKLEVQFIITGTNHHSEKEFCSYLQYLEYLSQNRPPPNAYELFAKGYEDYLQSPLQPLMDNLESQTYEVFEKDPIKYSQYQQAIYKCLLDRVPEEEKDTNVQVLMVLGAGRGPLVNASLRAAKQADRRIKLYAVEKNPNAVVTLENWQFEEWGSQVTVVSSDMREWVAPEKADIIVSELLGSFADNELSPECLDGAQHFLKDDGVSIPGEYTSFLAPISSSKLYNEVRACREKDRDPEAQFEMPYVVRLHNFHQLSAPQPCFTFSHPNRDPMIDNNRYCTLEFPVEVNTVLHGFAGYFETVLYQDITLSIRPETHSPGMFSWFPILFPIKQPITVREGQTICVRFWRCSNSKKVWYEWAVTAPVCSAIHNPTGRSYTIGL
PRMT5-MEP50, sequence (Q9BQA1 whole entry partner): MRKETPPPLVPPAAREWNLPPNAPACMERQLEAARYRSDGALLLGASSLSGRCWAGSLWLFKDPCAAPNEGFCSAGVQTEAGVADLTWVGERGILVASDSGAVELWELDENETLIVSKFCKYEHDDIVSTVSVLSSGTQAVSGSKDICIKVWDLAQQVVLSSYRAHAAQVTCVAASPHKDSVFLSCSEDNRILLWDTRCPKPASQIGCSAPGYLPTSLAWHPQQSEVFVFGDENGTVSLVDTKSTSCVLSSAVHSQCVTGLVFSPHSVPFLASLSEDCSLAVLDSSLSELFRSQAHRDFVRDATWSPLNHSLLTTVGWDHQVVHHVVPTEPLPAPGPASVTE

For another assay, the target named is T1, FLT3 (Homo sapiens, UniProt P36888).
T1 sequence (P36888 27-993): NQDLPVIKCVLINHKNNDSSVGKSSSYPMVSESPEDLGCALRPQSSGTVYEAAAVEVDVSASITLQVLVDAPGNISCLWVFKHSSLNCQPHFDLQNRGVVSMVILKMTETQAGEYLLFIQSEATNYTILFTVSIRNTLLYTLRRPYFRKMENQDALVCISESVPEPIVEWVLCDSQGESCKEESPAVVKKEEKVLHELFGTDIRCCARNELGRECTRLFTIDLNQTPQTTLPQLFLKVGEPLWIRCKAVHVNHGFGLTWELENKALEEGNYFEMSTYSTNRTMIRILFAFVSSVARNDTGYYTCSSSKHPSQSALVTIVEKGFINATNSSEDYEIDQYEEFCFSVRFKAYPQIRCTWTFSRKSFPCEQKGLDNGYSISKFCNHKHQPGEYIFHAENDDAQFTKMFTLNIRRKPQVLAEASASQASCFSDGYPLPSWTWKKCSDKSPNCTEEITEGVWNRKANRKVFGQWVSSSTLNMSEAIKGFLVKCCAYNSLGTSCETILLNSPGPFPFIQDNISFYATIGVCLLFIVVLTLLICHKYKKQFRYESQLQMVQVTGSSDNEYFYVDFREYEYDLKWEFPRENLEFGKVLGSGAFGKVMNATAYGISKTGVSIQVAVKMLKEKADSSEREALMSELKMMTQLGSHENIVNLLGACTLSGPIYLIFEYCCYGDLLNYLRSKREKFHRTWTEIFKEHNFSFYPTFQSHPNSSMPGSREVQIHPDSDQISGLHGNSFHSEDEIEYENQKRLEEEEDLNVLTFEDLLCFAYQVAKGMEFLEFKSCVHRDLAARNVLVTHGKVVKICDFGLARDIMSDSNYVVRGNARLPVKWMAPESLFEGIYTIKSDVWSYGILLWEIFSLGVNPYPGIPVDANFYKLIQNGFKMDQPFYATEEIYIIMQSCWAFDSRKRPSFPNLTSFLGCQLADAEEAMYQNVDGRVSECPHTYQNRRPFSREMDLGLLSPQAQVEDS
The assay can be described thus: FLT3 Caliper assay. The format is biochemical. The conditions noted are these: Table 4; read-out: FLT3 Calipher assay IC50. The procedure:
(§1) FLT3/FLT3-ITD Caliper Assays
(§2) Assays were performed in a 20 μl-volume in 384-well polypropylene microplates (Perkin Elmer Proxiplate, cat. No. 6059480) at ambient temperature. Optimized 1× assay buffer was 50 mM Hepes pH 7.5, 2 mM DTT, 0.01% Tween, 0.01% BSA, 10 mM MgCl2. For compound screening FLT3 (final concentration, f.c.=0.9 nM) or FLT3-ITD (f.c.=7 nM) was added using a Multidrop Combi (ThermoFisher Scientific, Waltham, MA) and preincubated for 10 min. Reactions were started by adding fluorescein-peptide (sequence 5-FAM-EAIYAAPFAKKK-CONH2) (f.c.=300 μM) and ATP (FLT3 f.c.=97 μM FLT3-ITD f.c.=146 μM) substrates. Reactions proceeded for 60 minutes. The reactions were stopped with LabChip ProfilerPro Separation Buffer containing EDTA (f.c.=20 mM). The plates were read on a Caliper microfluidics reader (PerkinElmer, Waltham, MA).

The next assay has as its target T2, FLT3-ITD (Homo sapiens, UniProt P36888).
T2 sequence (P36888 1-993): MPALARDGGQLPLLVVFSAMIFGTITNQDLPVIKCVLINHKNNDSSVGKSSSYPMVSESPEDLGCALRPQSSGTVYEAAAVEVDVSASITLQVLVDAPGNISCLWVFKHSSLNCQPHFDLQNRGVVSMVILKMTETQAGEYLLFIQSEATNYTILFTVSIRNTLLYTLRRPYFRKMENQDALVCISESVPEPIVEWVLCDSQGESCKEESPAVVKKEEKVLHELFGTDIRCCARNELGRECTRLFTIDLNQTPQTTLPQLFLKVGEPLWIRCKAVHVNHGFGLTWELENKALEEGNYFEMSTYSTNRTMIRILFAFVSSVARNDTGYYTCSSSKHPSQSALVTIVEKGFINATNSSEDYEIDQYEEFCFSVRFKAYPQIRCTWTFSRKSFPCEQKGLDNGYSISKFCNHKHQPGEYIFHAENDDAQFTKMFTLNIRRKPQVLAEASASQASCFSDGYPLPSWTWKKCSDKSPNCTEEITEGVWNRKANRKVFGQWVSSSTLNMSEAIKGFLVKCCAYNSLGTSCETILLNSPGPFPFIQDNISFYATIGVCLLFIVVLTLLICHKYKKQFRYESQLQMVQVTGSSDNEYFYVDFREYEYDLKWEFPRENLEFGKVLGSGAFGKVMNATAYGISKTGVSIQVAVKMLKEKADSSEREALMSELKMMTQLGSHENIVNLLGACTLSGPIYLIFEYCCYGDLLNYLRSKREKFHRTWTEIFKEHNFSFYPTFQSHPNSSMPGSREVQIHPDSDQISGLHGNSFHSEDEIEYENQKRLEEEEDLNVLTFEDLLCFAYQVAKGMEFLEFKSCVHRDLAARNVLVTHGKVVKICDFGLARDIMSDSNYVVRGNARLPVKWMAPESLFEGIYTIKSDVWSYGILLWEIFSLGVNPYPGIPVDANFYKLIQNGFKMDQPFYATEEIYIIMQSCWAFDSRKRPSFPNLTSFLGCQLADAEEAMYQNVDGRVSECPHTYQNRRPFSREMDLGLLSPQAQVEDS
The assay can be described thus: FLT3-ITD Caliper assay. The format is biochemical. The conditions noted are these: Table 4; read-out: FLT3-ITD Calipher assay IC50. Here is the method:
as §1, §2

The target of the next assay is METTL3/METTL14 (Homo sapiens, UniProt Q86U44). Description: METTL3-14 standard enzyme assay (3H-SAM flashplate). The conditions noted are these: Table 4; METTL3 biochemical assay. An outline of the steps: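 Radiometric methyltransferase read-out: after quenching with excess unlabelled SAM (15 μM), biotinylated RNA was captured on streptavidin flashplates (2 h, 25° C) and counted. Reactions contained 2.5 nM enzyme (5 min preincubation), 100 nM RNA and 100 nM 3H-SAM, ran 30 min in HEPES pH 7.5 buffer with KCl, MgCl2, DTT.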
METTL3/METTL14, sequence (Q86U44 whole entry, species assumed): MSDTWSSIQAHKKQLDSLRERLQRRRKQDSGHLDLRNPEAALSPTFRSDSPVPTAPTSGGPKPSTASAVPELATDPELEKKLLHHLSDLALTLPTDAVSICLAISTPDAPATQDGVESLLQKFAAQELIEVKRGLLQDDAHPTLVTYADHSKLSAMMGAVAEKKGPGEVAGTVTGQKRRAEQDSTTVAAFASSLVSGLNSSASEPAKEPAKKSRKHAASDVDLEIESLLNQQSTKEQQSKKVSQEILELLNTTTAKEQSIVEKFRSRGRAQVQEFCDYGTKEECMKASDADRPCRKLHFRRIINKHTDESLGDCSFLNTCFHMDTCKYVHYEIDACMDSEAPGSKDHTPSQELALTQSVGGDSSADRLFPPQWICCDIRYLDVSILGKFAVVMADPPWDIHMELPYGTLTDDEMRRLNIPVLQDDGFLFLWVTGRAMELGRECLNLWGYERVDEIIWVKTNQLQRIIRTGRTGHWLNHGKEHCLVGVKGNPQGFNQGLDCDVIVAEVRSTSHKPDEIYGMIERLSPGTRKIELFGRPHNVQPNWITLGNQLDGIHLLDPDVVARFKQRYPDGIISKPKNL
METTL3/METTL14, sequence (Q9HCE5 whole entry partner, species assumed): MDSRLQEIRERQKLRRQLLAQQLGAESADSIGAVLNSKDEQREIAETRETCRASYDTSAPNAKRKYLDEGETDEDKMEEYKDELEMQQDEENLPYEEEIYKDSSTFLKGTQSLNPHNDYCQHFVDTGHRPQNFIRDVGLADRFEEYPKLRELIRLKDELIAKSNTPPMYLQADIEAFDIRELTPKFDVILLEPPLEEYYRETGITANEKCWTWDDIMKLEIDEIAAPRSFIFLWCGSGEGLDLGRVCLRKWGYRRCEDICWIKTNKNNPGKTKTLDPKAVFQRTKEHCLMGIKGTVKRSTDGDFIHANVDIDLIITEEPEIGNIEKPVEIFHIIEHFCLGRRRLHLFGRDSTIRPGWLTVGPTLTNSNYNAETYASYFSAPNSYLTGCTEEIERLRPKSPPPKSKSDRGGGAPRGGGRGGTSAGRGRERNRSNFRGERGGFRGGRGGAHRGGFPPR

18 molecules from US20240051985A1, “METTL3 MODULATORS” (ACCENT THERAPEUTICS, INC., priority 2020, published 2024) can be followed below.

pIC50: −log10 of the molar value.

Broadly, the pIC50 is the negative decadic logarithm of the IC50, by convention in mol/L. With `Cn1ccc(-c2cn([C@@H]3O[C@H](C(=O)NCCc4c[nH]cn4)[C@@H](O)[C@H]3O)c3ncnc(N)c23)n1` [Compound I-228], the pIC50 on PRMT5-MEP50 is 6.00 to 7.00; on FLT3, at most 6.00; at FLT3-ITD, at most 6.00; on METTL3/METTL14, 6.00 to 7.00.

As to `Cn1ccc(-c2cn([C@@H]3O[C@H](C(=O)NC4CCc5nc(N)sc5C4)[C@@H](O)[C@H]3O)c3ncnc(N)c23)n1` (stereo in doubt) [Compound I-161], the pIC50 on PRMT5-MEP50 is 6.00 to 7.00; at FLT3 it was at most 6.00; at FLT3-ITD, at most 6.00; at METTL3/METTL14, 6.00 to 7.00.

In the case of `Cn1ccc(-c2cn([C@@H]3O[C@H](C(=O)N4CCNC(=O)C4)[C@@H](O)[C@H]3O)c3ncnc(N)c23)n1` [Compound I-204], the pIC50 against PRMT5-MEP50, on FLT3, on FLT3-ITD and at METTL3/METTL14 was at most 6.00 in each case.

As to `COc1cccc(NC(=O)[C@H]2O[C@@H](n3cc(-c4ccn(C)n4)c4c(N)ncnc43)[C@H](O)[C@@H]2O)c1` [Compound I-157], the pIC50 against PRMT5-MEP50 is 6.00 to 7.00; on FLT3, at most 6.00; at FLT3-ITD, at most 6.00; against METTL3/METTL14 it was at most 6.00.

With `Cn1ccc(-c2cn([C@@H]3O[C@H](C(=O)Nc4cc[nH]n4)[C@@H](O)[C@H]3O)c3ncnc(N)c23)n1` [Compound I-170], the pIC50 at PRMT5-MEP50 was at most 6.00; at FLT3, 6.00 to 7.00; on FLT3-ITD, 6.00 to 7.00; on METTL3/METTL14, at most 6.00.

With `COCCNc1ccnc(NC(=O)[C@H]2O[C@@H](n3cc(-c4ccn(C)n4)c4c(N)ncnc43)[C@H](O)[C@@H]2O)c1` [Compound I-165], the pIC50 against PRMT5-MEP50 was 6.00 to 7.00; on FLT3, at most 6.00; on FLT3-ITD, at most 6.00; against METTL3/METTL14 it was 6.00 to 7.00.

Turning to `Cn1ccc(-c2cn([C@@H]3O[C@H](C(=O)Nc4ccnc(NC5CCC5)c4)[C@@H](O)[C@H]3O)c3ncnc(N)c23)n1` [Compound I-167], the pIC50 on PRMT5-MEP50 was 6.00 to 7.00; on FLT3, at most 6.00; at FLT3-ITD, at most 6.00; at METTL3/METTL14 it was 6.00 to 7.00.

For the molecule `Cn1ccc(-c2cn([C@@H]3O[C@H](C(=O)NCCc4ccccc4)[C@@H](O)[C@H]3O)c3ncnc(N)c23)n1` [Compound I-192], the pIC50 against PRMT5-MEP50 is 6.00 to 7.00; at FLT3, at most 6.00; on FLT3-ITD it was at most 6.00; at METTL3/METTL14 it was 6.00 to 7.00.

For the molecule `CC(=O)N1CCC(CNC(=O)[C@H]2O[C@@H](n3cc(-c4ccn(C)n4)c4c(N)ncnc43)[C@H](O)[C@@H]2O)CC1` [Compound I-227], the pIC50 at PRMT5-MEP50, at FLT3, at FLT3-ITD and against METTL3/METTL14 was at most 6.00 throughout.

`Cn1ccc(-c2cn([C@@H]3O[C@H](C(=O)N[C@@H]4CCC(=O)NC4)[C@@H](O)[C@H]3O)c3ncnc(N)c23)n1` [Compound I-180]: the pIC50 on PRMT5-MEP50, on FLT3, on FLT3-ITD and on METTL3/METTL14 was at most 6.00 throughout.

In the case of `CCNc1cc(CNC(=O)[C@H]2O[C@@H](n3cc(-c4ccn(C)n4)c4c(N)ncnc43)[C@H](O)[C@@H]2O)ccn1` [Compound I-226], the pIC50 was 6.00 to 7.00 at PRMT5-MEP50, at most 6.00 on FLT3, at most 6.00 at FLT3-ITD and 6.00 to 7.00 against METTL3/METTL14.

For `Cn1ccc(-c2cn([C@@H]3O[C@H](C(=O)N[C@H]4CCc5nc(N)sc5C4)[C@@H](O)[C@H]3O)c3ncnc(N)c23)n1` [Compound I-197], the negative-log IC50 (pIC50) on PRMT5-MEP50 is at most 6.00; on FLT3, at most 6.00; on FLT3-ITD, at most 6.00; at METTL3/METTL14 it was 6.00 to 7.00.

For `Cn1ccc(-c2cn([C@@H]3O[C@H](C(=O)Nc4ccon4)[C@@H](O)[C@H]3O)c3ncnc(N)c23)n1` [Compound I-171], the pIC50 against PRMT5-MEP50, at FLT3, at FLT3-ITD and on METTL3/METTL14 was at most 6.00 throughout.

On to `COc1cccc(CNC(=O)[C@H]2O[C@@H](n3cc(-c4ccn(C)n4)c4c(N)ncnc43)[C@H](O)[C@@H]2O)c1` [Compound I-40], for which the pIC50 against PRMT5-MEP50 was 6.00 to 7.00; on FLT3, at most 6.00; at FLT3-ITD, at most 6.00; against METTL3/METTL14, 6.00 to 7.00.

For the molecule `Cn1ccc(-c2cn([C@@H]3O[C@H](C(=O)Nc4ccc5ccc(N6CCC6)nc5c4)[C@@H](O)[C@@H]3F)c3ncnc(N)c23)n1` [Compound I-33, (2S,3R,4S,5R)-5-[4-amino-5-(1-methyl-1H-pyrazol-3-yl)-7H-pyrrolo[2,3-d]pyrimidin-7-yl]-N-[2-(azetidin-1-yl)quinolin-7-yl]-4-fluoro-3-hydroxyoxolane-2-carboxamide], the pIC50 was at most 6.00 against PRMT5-MEP50, at most 6.00 on FLT3, at most 6.00 at FLT3-ITD and above 8.00 at METTL3/METTL14.

As to `Cn1ccc(-c2cn([C@@H]3O[C@H](C(=O)NN4CCCCC4)[C@@H](O)[C@H]3O)c3ncnc(N)c23)n1` [Compound I-199], the negative logarithm of the IC50 (pIC50) against PRMT5-MEP50 is 6.00 to 7.00; at FLT3, at most 6.00; at FLT3-ITD, at most 6.00; against METTL3/METTL14, at most 6.00.

Consider `Cn1ccc(-c2cn([C@@H]3O[C@H](C(=O)Nc4ccccc4)[C@@H](O)[C@H]3O)c3ncnc(N)c23)n1` [Compound I-173], for which the pIC50 at FLT3 was at most 6.00; at FLT3-ITD it was at most 6.00; against METTL3/METTL14 it was 6.00 to 7.00.

Turning to `Cn1ccc(-c2cn([C@@H]3O[C@H](C(=O)Nc4cc(NCC5CC5)ccn4)[C@@H](O)[C@H]3O)c3ncnc(N)c23)n1` [Compound I-163], the pIC50 on PRMT5-MEP50 was 7.00 to 8.00; at FLT3, at most 6.00; at FLT3-ITD, at most 6.00; at METTL3/METTL14, 6.00 to 7.00.
